The target in assay [1] is T1, human norovirus Sydney 2012 RdRp (Norovirus GII.4 (Norwalk virus, human norovirus), UniProt K4L8Z7). Nature of the assay: Fluorescent de novo RdRp activity assay (PicoGreen, poly(C) template). The class given is biochemical. As to the method:
The 62 compounds identified in silico were screened for inhibition of norovirus RdRp activity using an in vitro fluorescent, de novo RdRp assay. Compounds were tested at fixed concentrations of 10 µM and 100 µM, and compared to mock treated samples containing the vehicle only (0.5% DMSO [vol/vol]) (Fig. 4A,B). […] For certain compounds, significant insolubility was observed, coupled with either inherent fluorescence quenching (positive y-axis values on Fig. 4A,B) or enhancement of the fluorescence signal (negative y-axis values).
The newly synthesised compounds, including the re-prepared hit 13 and some synthesis intermediates (Table 1), were initially evaluated on norovirus Sydney 2012 RdRp activity in vitro using a quantitative fluorescent assay. Compounds were tested at a fixed concentration of 10 μM and compared to the relative activity of mock treated samples.
Recombinant calicivirus RdRps (GenBank accession numbers) norovirus GII.Pe/GII.4 Sydney 2012 (KT239579), MNV GV CW1 (DQ285629), RHDV Czech V351 (KF594473.1), and SaV GI.1 Mc114 (AY237422) were expressed and purified as described previously[60],[61]. RdRp resistance mutants were generated using the QuikChange site-directed mutagenesis kit (Agilent Technologies, Santa Clara, CA, USA) and confirmed by Sanger sequencing.
(§1) Fluorescent RdRp activity assays were carried out as previously described[14],[62]. Briefly, RdRp activity was quantified by monitoring the formation of double-stranded RNA (dsRNA) from a single stranded homopolymeric template, poly(C) (Sigma Aldrich, St Louis, MO, USA), using the fluorescent dye PicoGreen (Life Technologies, Carlsbad, CA, USA). RdRp assays were performed in 384-well plates, and each reaction mixture contained 400 ng enzyme, 45 µM GTP, 10 ng/µL poly(C) RNA, 2.5 mM MnCl2, 5 mM dithiothreitol, (DTT), 0.01% bovine serum albumin (BSA), and 0.005% Tween 20 in 20 mM Tris-HCl, pH 7.5, with a final reaction volume of 25 µL. The previous published norovirus NNI NIC02 was used as a positive control. RdRps were incubated for 10 mins at 30 °C in the presence of the test compounds or the compound vehicle DMSO (0.5% vol/vol) before addition into the reaction mixture, which was then allowed to run 15 min at 30 °C then terminated with 10 mM EDTA, followed by PicoGreen staining and dsRNA quantitation. GraphPad Prism V6.05 (La Jolla, CA, USA) was used to plot the IC50 values. In cases where fluorescent enhancement was recorded for a compound instead of inhibition, a secondary gel-based polymerase activity assay was used as a counter-screen as described below, to exclude the possibility of RdRp activity enhancement (Supplementary Fig. S1). Primed elongation activity was examined in a gel-based assay as previously described[16],[63] using the RNA template (PE44-NoV, Fig. 4D). Gels were imaged using BioRad (Hercules, CA, U.SA) Geldoc Universal Hood II, running BioRad Image Lab software, V4.1, build 16. Antagonism was calculated using Compusyn software V1.0[59]. 54 and PPNDS (4:1 ratio) were tested alone and together against norovirus Sydney 2012 RdRp.

Assay [2] concerns the target T1, human norovirus Sydney 2012 RdRp. Nature of the assay: Combinational study of 54 and PPNDS (Compusyn combination index). The class given is biochemical. To be noted: 54 with PPNDS, 4:1 ratio. How it is done:
Despite the minimal activity in the cell culture system, RdRp inhibition by 54 is an important finding in the search of novel norovirus inhibitors. […] PPNDS (0.025–25 µM) and 54 (0.1–100 µM) were examined alone and together in a 1:4 ratio respectively (Fig. 13A), and the average of the combination indices at 50% (1.6), 75% (1.7) and 90% (1.8) inhibition was 1.7.
as §1

The target of the next assay is T2, R419A norovirus RdRp (Norovirus GII.4 (Norwalk virus, human norovirus), UniProt K4L8Z7, R1608A).
T2 sequence (K4L8Z7 1190-1699 R1608A): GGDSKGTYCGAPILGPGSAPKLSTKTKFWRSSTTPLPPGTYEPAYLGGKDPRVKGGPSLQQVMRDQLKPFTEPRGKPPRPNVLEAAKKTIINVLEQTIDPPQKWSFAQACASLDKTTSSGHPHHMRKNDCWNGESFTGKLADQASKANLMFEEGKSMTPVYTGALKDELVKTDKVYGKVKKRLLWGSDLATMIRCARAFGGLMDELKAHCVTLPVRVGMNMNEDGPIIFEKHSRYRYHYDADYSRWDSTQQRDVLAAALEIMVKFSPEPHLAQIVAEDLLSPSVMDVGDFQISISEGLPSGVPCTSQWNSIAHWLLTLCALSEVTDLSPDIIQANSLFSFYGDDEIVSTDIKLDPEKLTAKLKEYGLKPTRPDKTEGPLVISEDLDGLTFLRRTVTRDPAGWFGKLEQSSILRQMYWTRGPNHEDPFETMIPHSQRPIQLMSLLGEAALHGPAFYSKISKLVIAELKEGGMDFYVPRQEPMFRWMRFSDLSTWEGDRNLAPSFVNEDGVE
The assay is described as follows: Fluorescent RdRp assay, R419A mutant RdRp. The class given is biochemical. To be noted: 0.1–100 µM. The source says: Given the evidence of 54 being a site-B binding NNI, residues Q414 and R419 were mutated to alanine. These residues were previously shown by our research group and others to be critical for human norovirus RdRp site-B binding NNIs, and can create resistance to the drug through their mutagenesis[16],[17],[39]. After the mutant RdRps’ transcriptional activity was confirmed in a fluorescent RdRp assay (Q414A: 54%, R419A: 34% of wild-type activity, respectively), dose-response curves for 54 (0.1–100 µM) were produced to compare the IC50 values between the wild-type RdRp and the two mutant RdRps, Q414A and R419A (Fig. 13B). […]
Fluorescent RdRp activity assays were carried out as previously described[14],[62]. Briefly, RdRp activity was quantified by monitoring the formation of double-stranded RNA (dsRNA) from a single stranded homopolymeric template, poly(C) (Sigma Aldrich, St Louis, MO, USA), using the fluorescent dye PicoGreen (Life Technologies, Carlsbad, CA, USA). […] RdRps were incubated for 10 mins at 30 °C in the presence of the test compounds or the compound vehicle DMSO (0.5% vol/vol) before addition into the reaction mixture, which was then allowed to run 15 min at 30 °C then terminated with 10 mM EDTA, followed by PicoGreen staining and dsRNA quantitation. […] Antagonism was calculated using Compusyn software V1.0[59]. […]

The next assay addresses T3, MNV RdRp (Norovirus, UniProt Q80J95).
T3 construct: made in house
Nature of the assay: Fluorescent RdRp activity assay, MNV RdRp. The class given is biochemical, murine norovirus. To be noted: 0.1–100 µM; read-out: IC50 against MNV RdRp. An excerpt:
The antiviral activity of the four compounds (11, 13, 42a and 54) were examined for inhibition of RNA polymerases from other viruses spanning three genera of the Caliciviridae family, including Norovirus (human norovirus and MNV), Lagovirus (rabbit haemorrhagic disease virus [RHDV]) and Sapovirus (human sapovirus). […] The protein sequence of the examined calicivirus polymerases has an identity range between 30.2–61.4%, and therefore the broad-spectrum activity of these compounds could be attributed to a common, highly-conserved binding pocket across the RdRps, as has been previously reported with broad-spectrum activity of other site-B binding NNIs[16]. Moreover, the ability of each compound to inhibit the different RdRps in a similar range could be further confirmation of targeting a well-conserved binding site of the Caliciviridae family.
Recombinant calicivirus RdRps (GenBank accession numbers) norovirus GII.Pe/GII.4 Sydney 2012 (KT239579), MNV GV CW1 (DQ285629), RHDV Czech V351 (KF594473.1), and SaV GI.1 Mc114 (AY237422) were expressed and purified as described previously[60],[61]. […]
Fluorescent RdRp activity assays were carried out as previously described[14],[62]. Briefly, RdRp activity was quantified by monitoring the formation of double-stranded RNA (dsRNA) from a single stranded homopolymeric template, poly(C) (Sigma Aldrich, St Louis, MO, USA), using the fluorescent dye PicoGreen (Life Technologies, Carlsbad, CA, USA). […] RdRps were incubated for 10 mins at 30 °C in the presence of the test compounds or the compound vehicle DMSO (0.5% vol/vol) before addition into the reaction mixture, which was then allowed to run 15 min at 30 °C then terminated with 10 mM EDTA, followed by PicoGreen staining and dsRNA quantitation. […] In cases where fluorescent enhancement was recorded for a compound instead of inhibition, a secondary gel-based polymerase activity assay was used as a counter-screen as described below, to exclude the possibility of RdRp activity enhancement (Supplementary Fig. S1). […] Antagonism was calculated using Compusyn software V1.0[59]. […]

Regarding `O=C1NN(c2ccccc2)C(=O)/C1=C/c1ccc(-c2ccc(S(=O)(=O)Nc3ccccc3)cc2)o1` [Compound 54], the IC50 in assay [1] was 5.6 µM. Further, in assay [2], the “combination index at 50% inhibition” value is reported as 1.6, the “combination index at 75% inhibition” value was found to be 1.7 and the “combination index at 90% inhibition” value is listed as 1.8. Moreover, the average combination index in assay [2] (average over 50%, 75% and 90% inhibition) worked out at 1.7. The same compound had an IC50 on R419A norovirus RdRp of 10.2 µM. At MNV RdRp, the IC50 was found to be 12.1 µM.

For the origin of these results see publication PMC5841303, “In silico screening for human norovirus antivirals reveals a novel non-nucleoside inhibitor of the viral polymerase” (Scientific Reports, 2018).
